Laboratory results as given in PMC8308830, “Single-Agent and Fixed-Dose Combination HIV-1 Protease Inhibitor Drugs in Fission Yeast (Schizosaccharomyces pombe)” (Pathogens, 2021).
Entries after “also recorded” stand apart in the source; their conditions may differ.

Assays:
HIV = conditions: human cells, antiviral activity; per-drug references in Table 2; read-out: EC50 in Human Cell; cited from earlier work
HIV-1 PR [1] = target: T1, HIV-1 PR (Human immunodeficiency virus type 1 group M subtype B, UniProt P12497); test: cell-based; conditions: for EC50: PR-on RE294 cells, growth (OD650) at 72 h post-gene induction relative to PR-off cells; for decrease of EC50 of formulated drug in comparison with pure compound: fission yeast RE294, formulated drug pill vs pure compound
Description: The goal of this experiment was to determine the potency of each PI drug in fission yeast by the determination of EC50. […] Briefly, both HIV-1 PR-suppressing (PR-off) and PR-producing (PR-on) RE294 cells were prepared as described above. The PR-producing cells were added with a PI drug in the final concentration as indicated. Final cellular growth was measured at 72 h post-gene induction.
(A) Pure compound of PI drugs. (B) Formulated PI drug pills. HIV-1 PR gene expression was induced in RE294 cells, as described in Figure 2. […] Cellular growth was measured at 72 h post-gene induction by optical density of 650 nm using a spectrophotometer. EC50 curves were generated by using Prism 8 software showing averages with standard error bars. The measurements were repeated with three different experiments.
Briefly, both HIV-1 PR-suppressing (PR-off) or PR-producing (PR-on) RE294 cells were prepared as described above as control and for testing. The PR-producing cells were added with a PI drug in the final concentration as shown. Final cellular growth was measured at 72 h post-gene induction by optical density of 650 nm using a spectrophotometer.

HIV-1 PR [2] = target: T1, HIV-1 PR; type: cell-based; parameters: HIV-1 PR is a dimeric aspartyl protease that consists of two identical subunits with 99 amino acids; expressed in transfected cells; host or cells: Schizosaccharomyces pombe strain RE294; conditions: 150 μM drug; PR-on RE294 cells; OD650 over 72 h; formulated single-agent and combination drugs
HIV-1 PR [3] = target: T1, HIV-1 PR; conditions: 150 μM drug; G31 cells; 20 h post-gene induction
HIV-1 PR [4] = target: T1, HIV-1 PR; test: Fission yeast colony formation assay, wild-type HIV-1 PR (RE294 strain); type: cell-based; parameters: HIV-1 PR is a dimeric aspartyl protease that consists of two identical subunits with 99 amino acids; expressed in transfected cells; host or cells: Schizosaccharomyces pombe strain RE294; conditions: 150 μM drug; PR-on RE294 cells; 4–5 days at 30 °C; pure chemical forms and formulated drug pills
Description: The effect of the above-mentioned FDA-approved PI drugs on fission yeast colony formation was tested in the presence and absence of HIV-1 PR. Specifically, a fission yeast RE294 strain, which carries a single and integrated copy of HIV-1 PR gene in the yeast chromosome, was used in this experiment. One thousand active growing and log-phase RE294 cells were evenly spread and cultured on the six-well agar wells containing the minimal and selective PMG medium in presence of 20 µM of thiamine (PR-off) or absence of thiamine (PR-on) with incubation at 30 °C for 4–5 days. […] To test the effect of a PI drug on the colony formation, 150 μM of each drug was added to the respective agar well in the presence of HIV-1 PR. Since all those drugs were dissolved in dimethyl sulfoxide (DMSO), to test the potential DMSO effect on the yeast colony formation, DMSO in the final concentration of 1% was added to the PR-on well as a mock control (Figure 2A). […]
A modified fission yeast colony-formation assay was used to investigate the effect of the PR gene expression on fission yeast cell proliferation from previously described protocol. […] The inhibitory effect of each FDA PI drug on yeast colony formation was evaluated 4–5 days after plating by comparing the growth of the colonies of the drug-treated wells to that of the mock DMSO controls.

[5] = EC50 in Fission Yeast /Pure Compound, pure compound
[6] = EC50 in Fission Yeast /Drug Formulation, compounds in drug pill forms

SMILES | EC50 (HIV) [nM] | EC50 (HIV-1 PR [1]; [5]) [nM] | decrease of EC50 of formulated drug in comparison with pure compound (HIV-1 PR [1]) [%] | further results
CC(C)CN(C[C@@H](O)[C@H](Cc1ccccc1)NC(=O)O[C@H]1CCOC1)S(=O)(=O)c1ccc(N)cc1 [APV, Amprenavir] | 15 to 60 | 55400 ± 3180 | – | –
CC(C)(C)NC(=O)[C@@H]1CN(Cc2cccnc2)CCN1C[C@@H](O)C[C@@H](Cc1ccccc1)C(=O)N[C@H]1c2ccccc2C[C@H]1O [IDV, Indinavir] | 5 to 30 | – | – | –
CC(C)c1nc(CN(C)C(=O)N[C@H](C(=O)N[C@@H](Cc2ccccc2)C[C@H](O)[C@H](Cc2ccccc2)NC(=O)OCc2cncs2)C(C)C)cs1 [RTV, Ritonavir] | 40 to 100 | – | 38.9 | –
Cc1c(O)cccc1C(=O)N[C@@H](CSc1ccccc1)[C@H](O)CN1C[C@H]2CCCC[C@H]2C[C@H]1C(=O)NC(C)(C)C [NFV, Nelfinavir] | 3 to 40 | 9700 ± 340 | – | –
CCC[C@@]1(CCc2ccccc2)CC(O)=C([C@H](CC)c2cccc(NS(=O)(=O)c3ccc(C(F)(F)F)cn3)c2)C(=O)O1 [TPV, Tipranavir] | 30 to 70 | 7060 ± 320 | – | –
Cc1cccc(C)c1OCC(=O)N[C@@H](Cc1ccccc1)[C@@H](O)C[C@H](Cc1ccccc1)NC(=O)[C@H](C(C)C)N1CCCNC1=O [LPV, Lopinavir] | 4 to 11 | – | – | –
CC(C)(C)NC(=O)[C@@H]1C[C@@H]2CCCC[C@@H]2CN1C[C@@H](O)[C@H](Cc1ccccc1)NC(=O)[C@H](CC(N)=O)NC(=O)c1ccc2ccccc2n1 [SQV, Saquinavir] | 5 to 25 | – | – | –
COC(=O)N[C@H](C(=O)N[C@@H](Cc1ccccc1)[C@@H](O)CN(Cc1ccc(-c2ccccn2)cc1)NC(=O)[C@@H](NC(=O)OC)C(C)(C)C)C(C)(C)C [ATV, Atazanavir] | 2 to 5 | 21080 ± 70 | 22.5 | EC50 (HIV-1 PR [1]; [6]): 16300 ± 950 nM
CC(C)CN(C[C@@H](O)[C@H](Cc1ccccc1)NC(=O)O[C@H]1CO[C@H]2OCC[C@H]21)S(=O)(=O)c1ccc(N)cc1 [DRV, Darunavir] | 1 to 10 | – | 28.5 | –
CC(C)CN(C[C@@H](OP(=O)(O)O)[C@H](Cc1ccccc1)NC(=O)O[C@H]1CCOC1)S(=O)(=O)c1ccc(N)cc1 [FPV, Fosamprenavir] | – | – | – | suppression of HIV-1 PR-induced growth arrest, formulated drug pills (HIV-1 PR [2]): did not suppress; inhibition of HIV-1 PR proteolytic cleavage of GFP-MA↓CA-Vpr (Vpr pattern vs GFP pattern) (HIV-1 PR [3]): no suppression; EC50 (HIV-1 PR [1]; [6]): > 150000 nM; inhibitory activity against the HIV-1 PR in fission yeast (HIV-1 PR [1]; wild-type PR, fission yeast): no inhibitory activity; also recorded: did not show any inhibitory effect; suppression of the inhibitory effect of HIV-1 PR on colony formation (HIV-1 PR [4]): did not suppress
